Test system: B. burgdorferi 5A11
Test: Growth of B. burgdorferi in BSK-II medium with GlcNAc replaced by other N-acetylated sugars
Type: cell-based, Borrelia burgdorferi
Details: FIG. 7; for ability to support growth in the absence of GlcNAc: GlcNAc-free BSK-II supplemented with the sugar, 37° C., 5% CO2

SMILES | replication rate and final density compared with GlcNAc (5A11 in BSK-II complete media supplemented with the sugar, three independent cultures) | ability to support growth in the absence of GlcNAc
CC(=O)N[C@@H]1C(O)O[C@H](CO)[C@@H](O)[C@@H]1O (stereo partly drawn) [ManNAc, N-acetylmannosamine] | replicated at a similar rate and reached a comparable final density to GlcNAc | support growth in the absence of GlcNAc
CC(=O)N[C@H]1C(O)O[C@H](CO)[C@H](O)[C@@H]1O (stereo partly drawn) [GalNAc, N-acetylgalactosamine] | – | support growth in the absence of GlcNAc

Reference: US20250298019A1, “BORRELIA BURGDORFERI PEPTIDOGLYCAN DETECTION METHODS” (VIRGINIA TECH INTELLECTUAL PROPERTIES, INC., priority 2021, published 2025)
